Experimental data published in the supplement of paper PMC5412046.
Structures can show the parent of a compound that is named as a salt.

Key:
[1] = system: SB.msgc-1; assay: AC50 for growth inhibition (viability) (log10 M); higher = less potent; details: SB.msgc-1 (sporadic gastric cancer)
Summary of the method: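 Hereditary or sporadic patient-derived gastric cancer cells (500 cells in 5 μL medium per 1536 well) received 23 nL compound in DMSO by pintool. Dosing was 11 threefold dilutions starting at a final 46 μM. After 48 h, CellTiter-Glo was added for 30 min at room temperature and luminescence read on a ViewLux. Log half-maximal activity concentration came from a four-parameter fit of DMSO-normalised viability, keeping only high-quality curve classes.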

[2] = system: SB.mhdgc-1; assay: area under the dose-response curve of % viability (trapezoidal, 11 doses) (% viability x log10 concentration); higher = less cytotoxic; details: SB.mhdgc-1 (hereditary c.1380delA CDH1 gastric cancer)
Summary of the method: (§1)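 The values represent viability normalised to DMSO, expressed at the highest concentration or as trapezoidal area under the curve. Cells were hereditary or sporadic patient-derived gastric cancer cells, 500 in 5 μL medium per 1536 well. They were dosed with 23 nL of compound in DMSO by pintool over 11 threefold dilutions, with each compound's top concentration recorded. CellTiter-Glo was applied 48 h later for 30 min at room temperature before luminescence was read on a ViewLux.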

[3] = system: SB.msgc-1; assay: as above; details: SB.msgc-1 (sporadic gastric cancer)
Summary of the method: as §1

[4] = system: SB.mhdgc-1; assay: viability at highest tested concentration (MAXR) relative to DMSO; higher = less cytotoxic; details: SB.mhdgc-1 (hereditary c.1380delA CDH1 gastric cancer)
Summary of the method: as §1

[5] = system: SB.msgc-1; assay: as above; details: SB.msgc-1 (sporadic gastric cancer)
Summary of the method: as §1

| Compound | AC50 for growth inhibition (log10 M) [1] | area under the dose-response curve [2] | area under the dose-response curve [3] | viability [4] | viability [5] |
| --- | --- | --- | --- | --- | --- |
| O=C1N\2CCC3=C([NH]C4=C3C=CC=C4)C2=N/C5=CC=CC=C15 [Rutaecarpine] | -4.78 |  |  |  |  |
| CC(C)[C@H](CO)Nc1nc(Nc2cccc(Cl)c2)c2ncn(C(C)C)c2n1 [Purvalanol A] | -4.68 |  |  |  |  |
| O=C1Cc2cc(CCN3CCN(c4nsc5ccccc45)CC3)c(Cl)cc2N1 [Ziprasidone hydrochloride] | -4.63 |  |  |  |  |
| C[C@]\12CC[C@H](O)CC1=C/C[C@@H]3[C@@H]2CC[C@@]\4(C)[C@H]3C\C=C4C5=CN=CC=C5 [Abiraterone] | -5.19 |  |  |  |  |
| c1cncc(CN2CCC(n3ncc4c(N5CCOCC5)nc(-c5ccc6[nH]ccc6c5)nc43)CC2)c1 [WAY-600] | -4.63 |  |  |  |  |
| N=C(N)c1ccc(OCCCCCOc2ccc(C(=N)N)cc2)cc1 [Pentamidine isethionate] | -4.83 |  |  |  |  |
| OC1=C(Cl)C=C(N\C2=C(\C(=O)NC2=O)C3=C(C=CC=C3)[N+]([O-])=O)C=C1 | -4.88 |  |  |  |  |
| Nc1nc(N)c2nc(CNc3ccc(C(=O)NC(CCC(=O)O)C(=O)O)cc3)cnc2n1 (stereo unspecified) [Aminopterin] | -7.63 |  |  |  |  |
| CN(C)[C@H]\1[C@@H]2C[C@H]3C(=C(O)\[C@]2(O)C(=O)\C(=C1O)C(N)=O)/C(=O)C4=C(O)C=CC=C4[C@@]3(C)O [Tetracycline hydrochloride] | -5.18 |  |  |  |  |
| O=C(O)c1ccc(-n2nc(-c3ccccc3O)nc2-c2ccccc2O)cc1 [Deferasirox] | -4.93 |  |  |  |  |
| CNC(=O)CN1CCC(Oc2cc3c(Nc4cccc(Cl)c4F)ncnc3cc2OC)CC1 [Sapitinib] | -7.98 |  |  |  |  |
| COc1cc2c(cc1OC)CC(=O)N(CCCN(C)C[C@H]1Cc3cc(OC)c(OC)cc31)CC2.Cl [Ivabradine hydrochloride] | -4.58 |  |  |  |  |
| CCC1=C[C@@H]2CN(C1)Cc1c([nH]c3ccccc13)[C@@](C(=O)OC)(c1cc3c(cc1OC)N(C)[C@H]1[C@@](O)(C(=O)OC)[C@H](OC(C)=O)[C@]4(CC)C=CCN5CC[C@]31[C@@H]54)C2 [Vinorelbine] | -7.08 |  |  |  |  |
| COc1ccc2cc1Oc1ccc(cc1)C[C@H]1c3cc(c(OC)cc3CCN1C)Oc1c(OC)c(OC)cc3c1[C@H](C2)N(C)CC3 [Tetrandrine] | -4.73 |  |  |  |  |
| COC(=O)\C1=C\CCN(C)C1 [Arecoline] | -4.68 |  |  |  |  |
| CC(=O)[C@H]1CC[C@H]2[C@@H]3C/C=C4/C[C@@H](O)CC[C@]4(C)[C@H]3CC[C@]12C [Pregnenolone] | -4.88 |  |  |  |  |
| OC[C@H]1O[C@H](C[C@@H]1O)[N]2C=NC3=C2\N=C/NC[C@H]3O [Pentostatin] | -4.68 |  |  |  |  |
| COc1ccc(OC)c(-c2nnc3ccc(-c4ccc(OC)c(O[C@@H]5CCOC5)c4)nn23)c1 | -4.68 |  |  |  |  |
| COc1ccc(CC2NCCc3cc(OC)c(OC)cc32)cc1OC (stereo unspecified) [Tetrahydropapaverine] | -4.78 |  |  |  |  |
| O=C(Nc1ccc(OC(F)(F)F)cc1)c1sccc1NCc1ccnc2ccccc12 [OSI-930] | -4.73 |  |  |  |  |
| COc1cc(NCc2ccc3nc(N)nc(N)c3c2C)cc(OC)c1OC [Trimetrexate] | -5.83 |  |  |  |  |
| N[C@@H](Cc1c[nH]c2ccc(O)cc12)C(=O)O [5-Hydroxytryptophan] | -4.68 |  |  |  |  |
| C[C@H]1[C@H](O)O[C@@H]2O[C@@]3(C)CC[C@H]4[C@H](C)CC[C@@H]1[C@@]24OO3 [Artenimol] | -5.68 |  |  |  |  |
| NCCCC(N)(C(=O)O)C(F)F (stereo unspecified) [Eflornithine Hydrochloride] | -4.78 |  |  |  |  |
| CC(=O)NC(C)c1ccc(Oc2ccc(OC(C)C)cc2)cc1 (stereo unspecified) [ACC1 BMS] | -4.73 |  |  |  |  |

| Compound | AC50 for growth inhibition (log10 M) [1] | area under the dose-response curve [2] | area under the dose-response curve [3] | viability [4] | viability [5] |
| --- | --- | --- | --- | --- | --- |
| CC1CCN(c2cc(N3CCN(C)CC3)ccc2NC(=O)c2cc(C#N)c[nH]2)CC1 [c-FMS inhibitor] | -4.68 |  |  |  |  |
| COc1cc(Cl)cn2c(-c3cccc(NC4CNC4)n3)cnc12 | -4.68 |  |  |  |  |
| CC(C)[C@H](C(=O)Nc1ccc(C(=O)NO)cc1)c1ccccc1 [AR-42] | -6.18 |  |  |  |  |
| CCOC(=O)\C1=C(/C)N\C2=C(C1C3=CC=C(C=C3)C4=CC=CC=C4)\C(=O)CC(C)(C)C2 (stereo unspecified) [ITD-1] (top concentration 46.0829 µM) |  | 522 | 497 | 26.3% | 53.1% |
| CN1CCN2c3ccccc3Cc3ccccc3C2C1 (stereo unspecified) [Mianserin hydrochloride] (top concentration 46.0829 µM) |  | 508 | 536 | 80.8% | 94% |
| O=C1CCc2ccc(OCCCCN3CCN(c4cccc(Cl)c4Cl)CC3)cc2N1 [Aripiprazole] (top concentration 46.0829 µM) |  | 456 | 556 | 75.5% | 68.9% |
| CCN[C@H]1C[C@H](C)[S+](=O)([O-])c2sc([S+](N)(=O)[O-])cc21 [Dorzolamide hydrochloride] (top concentration 46.0829 µM) |  | 526 | 539 | 138% | 98.2% |
| CCOC\1=C(/C(=O)NC2=CC=C(OC3=C(Cl)C(=NC=C3)N)C(=C2)F)C(=O)N(\C=C1)C4=CC=C(F)C=C4 (top concentration 46.0829 µM) |  | 562 | 512 | 68.7% | 59.8% |
| N#C/N=C(\NCCCCCCOc1ccc(Cl)cc1)Nc1ccncc1 [GMX-1778] (top concentration 46.0829 µM) |  | 260 | 390 | 30.5% | 38.8% |
| CC(C)(OCc1nn(Cc2ccccc2)c2ccccc12)C(=O)O [Bindarit] (top concentration 46.0829 µM) |  | 530 | 310 | 72.5% | 23.8% |
| CCc1ccc(C(=O)Nc2cc(CN3CCN(C)CC3)cc(C(F)(F)F)c2)cc1C#Cc1cnc2ccnn2c1 [PRP003-013] (top concentration 46.0829 µM) |  | 421 | 498 | 3.86% | 0.984% |
| CCCc1nc(C(C)(C)O)c(C(=O)O)n1Cc1ccc(-c2ccccc2-c2nn[nH]n2)cc1 [Olmesartan] (top concentration 46.0829 µM) |  | 573 | 511 | 124% | 102% |
| O=C(Cc1ccc(-c2ccc(OCCN3CCOCC3)cc2)cn1)NCc1ccccc1 [KX-01] (top concentration 46.0829 µM) |  | 360 | 320 | 44.6% | 39.1% |
| CC(=O)Nc1ccc([C@H](C)C(=O)Nc2ncc(C(C)C)s2)cc1 (top concentration 46.0829 µM) |  | 340 | 425 | 51.4% | 45.1% |
| CC[C@@H]([C@H](C)O)n1ncn(-c2ccc(N3CCN(c4ccc(OCC5CO[C@@](Cn6cncn6)(c6ccc(F)cc6F)C5)cc4)CC3)cc2)c1=O (stereo partly specified) [Posaconazole] (top concentration 46.0829 µM) |  | 448 | 440 | 40.4% | 25.3% |
| C[C@]12CCC(=O)C=C1CC[C@@H]1[C@@H]2[C@@H](O)C[C@@]2(C)[C@H]1CC[C@]2(O)C(=O)CO [Hydrocortisone] (top concentration 46.0829 µM) |  | 582 | 505 | 101% | 103% |
| COc1cccc(Nc2c(C(N)=O)cnc3c(C)cc([S+](=O)([O-])c4cccc(C(=O)N(C)C)c4)cc23)c1 (top concentration 23.0415 µM) |  | 500 | 597 | 83.4% | 105% |
| C[C@]12CCC(=O)C=C1CC[C@@H]1[C@@H]2CC[C@@]2(C)[C@H]1CC[C@]2(C)O [Methyltestosterone] (top concentration 92.1659 µM) |  | 523 | 515 | 73.4% | 60.4% |
| O[C@@H]1[C@@H](O)[C@H](O[C@@H]([C@H]1O)C(O)=O)OC2=C(O)C(=C3C(=O)\C=C(/OC3=C2)C4=CC=CC=C4)O [Baicalin] (top concentration 46.0829 µM) |  | 578 | 511 | 91.1% | 84.5% |
| O=C(Nc1c(Cl)cncc1Cl)c1ccc(OC(F)F)c(OCC2CC2)c1 [Roflumilast] (top concentration 46.0829 µM) |  | 528 | 558 | 90.6% | 85.9% |
| COc1ccc(C(=O)CC2(O)C(=O)Nc3c(Cl)ccc(Cl)c32)cc1 (stereo unspecified) [YK-4-279] (top concentration 46.0829 µM) |  | 438 | 440 | 65.7% | 32.2% |
| CCOP(=O)(OCC)C(C)NC(=O)N(CCCl)N=O (stereo unspecified) [Fotemustine] (top concentration 46.0829 µM) |  | 480 | 496 | 95.3% | 73.1% |
| NC(=O)N/N=C/c1ccc([N+](=O)[O-])o1 [Nitrofurazone] (top concentration 46.0829 µM) |  | 499 | 512 | 82.6% | 67.4% |
| C=CC(=O)N1CCC[C@@H](n2nc(-c3ccc(Oc4ccccc4)cc3)c3c(N)ncnc32)C1 (top concentration 46.0829 µM) |  | 362 | 327 | 3.72% | 57.9% |
| c1ccc2c(-c3cnn4cc(-c5ccc(N6CCNCC6)cc5)cnc34)ccnc2c1 (top concentration 46.0829 µM) |  | 433 | 410 | 1.33% | 0.609% |
